The text below walks through data of US20210069169A1, “PHARMACEUTICAL COMPOSITIONS” (priority 2007, published 2021).

Series [1] in a line: ERC-213: serum DHEA and eleven metabolites after daily intravaginal DHEA suppositories. As to conditions: highest dose (Table 2). It counts as in vivo, postmenopausal women. An excerpt: The primary objective of that study was the evaluation of the systemic bioavailability of DHEA and its metabolites following daily intravaginal application of suppositories at four different DHEA concentrations. This study was a randomized, placebo-controlled and double-blind trial of 10-subjects per arm.

Series [2] can be described thus: Example 2: serum steroids after oral DHEA capsules or percutaneous DHEA cream or gel.
Excerpt: Thirty-six healthy 60-70-year-old postmenopausal women participated in the study after IRB approval and having given their written informed consent. Body weight was within ±20% of normal body weight according to Metropolitan Life Tables.
This study was a randomized open-label trial of 12 subjects per arm. After written informed consent was obtained and women were found eligible, each subject was randomized to receive DHEA by cream, get or orally. Daily, before breakfast, for 14 days, subjects received, at the research clinic, either 4 g of 10% DHEA gel or 4 g of 10% DHEA cream applied on a total 30 cm×30 cm area of the thighs or two 50 mg capsules of DHEA orally before breakfast.
Blood sampling was performed at 08:00-09:00 h at screening and before application of DHEA, on the first day of dosing, as well as on days 2, 4, 7, 10 and 14. On the 1st and 14th days, blood samples were obtained at 0.5 h, 1 h, 1.5 h, 2 h, 3 h, 4 h, 5 h, 6 h, 7 h, 8 h, 12 h and 24 h following DHEA administration. […] Serum steroid analysis
DHEA, DHEA-S, androst-5-ene-3β,17β-diol (5-diol), testosterone, androstenedione (4-dione), 17β-estradiol (E2), estrone (E1), estrone sulfate (E1-S), androsterone glucuronide (ADT-G), and androstane-3,17β-diol glucuronide (3 α-diol-G) were measured by gas chromatography/mass spectrometry (DHEA, 5-diol, 4-dione, testosterone, E1 and E2) using electron impact or chemical ionization and by liquid chromatography/tandem mass spectrometry using turboionspray (DHEA-S, E1-S, ADT-G and 3α-diol-G) as described (Labrie, Bélanger et a., 2006; Labrie, Bélanger, et al, 2007b and Swanson et al. 2007).
On days 1 and 14, the area under the curve of the serum concentration of each steroid was measured between 0 h and 24 h (AUC0-24 h). The areas under the curves were calculated by a linear trapezoidal method (model-independent). The relative bioavailability of the DHEA gel, DHEA cream and DHEA capsules was based on the mean difference in the log-transformed AUC values, All calculations were performed with the SAS software (SAS Institute, Cary, N.C., USA).
Series [3] concerns postmenopausal women suffering from vaginal atrophy. Description: ERC-210: vaginal examination (secretions, color, epithelial integrity, thickness). It counts as in vivo. As to conditions: 2, 4, 8 and 12 weeks. The source says:
At the same time intervals of 2, 4, 8 and 12 weeks, the gynecologist or physician in charge of the study at each site performed a vaginal exam to evaluate the degree of severity (none, mild, moderate or severe, analyzed using values of 0, 1, 2 and 3, respectively) for the main signs of vaginal atrophy, namely vaginal secretions, vaginal color, vaginal epithelial integrity and vaginal epithelial surface thickness. […] In fact. the beneficial effects observed by the gynecologist and or physician are almost superimposable to those self-reported by women on their most bothersome symptoms.
Vaginal examination was performed at screening and then at day 1 and at 2, 4, 8 and 12 weeks. Vaginal secretions, vaginal color, vaginal epithelial integrity and vaginal epithelial surface thickness were evaluated according to the following degrees of severity: none, mild, moderate or severe.

The next series has as its system endometrium. Description: ERC-210: endometrial biopsy. Type of series: in vivo, postmenopausal women. As to conditions: 3 months intravaginal; biopsies before and after 12 weeks. The procedure:
Endometrial biopsy was performed at screening and at month 3 at end of study. All biopsies were examined by the same pathologist at the central laboratory (Dr. Robert Dubé, Department of cytology-pathology, Enfant-Jésus Hospital, Quebec City, Canada).

The subject of another series is postmenopausal women. The note with it: cited from earlier work.
For series [4] the following is noted: cited from earlier work.
Where [5] appears, read: oral 150 mg (Buster et al. 1992).
Where [6] appears, read: oral 300 mg (Buster et al. 1992).

Where two headings read alike, the source gives them in different places.

For `C[C@]12CC[C@H](O)CC1=CC[C@@H]1[C@@H]2CC[C@]2(C)C(=O)CC[C@@H]12` [DHEA, dehydroepiandrosterone], the “Average serum DHEA” value in series [1] was 4.76 ± 0.42 ng/mL. Further, in series [2] (female, human, serum, po), the “Higher amount of circulating DHEA-S at same DHEA exposure, oral vs percutaneous” value is 6.7-9.0 fold and the “Transformation of DHEA into 4-dione, oral vs percutaneous” value is reported as 2.70-3.76 times. Besides, in series [2] (percutaneous DHEA (DHEA change 406%)), the “Efficacy of transformation into active androgens” value amounted to 52%. Moreover, in series [3], the “Signs of vaginal atrophy at vaginal exam” value was “highly statistically significant improvement of all four signs of vaginal atrophy”. For the same compound, the Endometrial histology result in the series with endometrium is listed as “no effect on endometrial histology”.
Consider `C[C@]12CC[C@@H]3c4ccc(O)cc4CC[C@H]3[C@@H]1CC[C@@H]2O` [E2, 17β-estradiol], for which, in the series with postmenopausal women (25 μg intravaginally, 12 months), the “% of cases with persisting dyspareunia” value is listed as 12.4%. Moreover, in the series on postmenopausal women (12 weeks intravaginal 25 μg E2 (Bachmann et al. 2008)), the “% of patients with pH less than 5” value was 51%.
For `CCCCC(=O)O[C@H]1CC[C@H]2[C@@H]3CCc4cc(O)ccc4[C@H]3CC[C@]12C` [estradiol valerate], the “Increase of Ki labeling in endometrium” value in the series on postmenopausal women (2 mg/day, 3 months) is 50%.
Consider `C[C@]12CC[C@H](O)CC1=CC[C@@H]1[C@@H]2CC[C@]2(C)C(=O)CC[C@@H]12` [micronized DHEA], for which, in series [4] (setting [5]), the “Maximal serum DHEA-S” value is around 10 µg/mL and the Maximal serum testosterone is around 1.6 ng/mL. In series [4] (setting [6]), the “Maximal serum DHEA” value is around 15 ng/mL and the Maximal serum testosterone was around 2.75 ng/mL.
With `CCCCCCCCCCC(=O)O[C@H]1CC[C@H]2[C@@H]3CCC4=CC(=O)CC[C@]4(C)[C@H]3CC[C@]12C` [testosterone undecanoate], the “Effect on the endometrium” value in the series on postmenopausal women (40 mg every second day) is “no effect on the endometrium”.
